Structures are written as SMILES. Like-named read-outs stand apart in the source and are kept apart here.

What is called Cmax is the peak of the concentration-time curve. As usually defined, the Tmax is the time at which the peak concentration occurs.

The nature of series [1]: Pharmacokinetic analysis and plasma drug concentrations (LC-MS/MS). It is filed as in vivo, APOE*3Leiden.CETP mice. The note with it: APOE*3Leiden.CETP, mouse, plasma; for AUC(0-t): read-out: AUC0–24. As for the experimental part: Animal experiments were approved by the Institutional Animal Care and Use Committee of The Netherlands Organization for Applied Research under registration number 3557.
PK analysis and plasma drug concentrations
EDTA plasma samples collected during the 24-hour PK study and at week 16 of the (cardio)vascular risk factor-atherosclerosis study were subsequently stored at -80°C until analysis. Thawed plasma samples (50μL) were de-proteinized with two volumes of acetonitrile containing an appropriate src-inhibitor chemotype as internal standard for each analyte.
Following deproteinization, a 5μL portion of clear supernatant was then subjected to solvent gradient separation in an Agilent 1100 series HPLC system interfaced to a Micromass triple-quadrupole mass spectrometer, which was operated in the positive ion electrospray MRM mode to obtain daughter ions for quantitation: Ion transitions used for quantitation were as follows: […]
curves ranging from 1 nM to 6 uM were fitted with a quadratic regression weighted by reciprocal concentration (1/x). LLOQ for the purposes of this assay was between 1 and 2 nM for all compounds analyzed. QC samples at three levels in the range of the standard curve were used to accept individual analytical sets, and all results were calculated as the mean of triplicate determinations ± standard error. Tmax, Cmax and AUCs were calculated using the software Berkeley Madonna (version 8.3.18). […]

Series [2] concerns SAA. The experiment in a line: Plasma SAA ELISA. The class given is in vivo, APOE*3Leiden.CETP mice. To be noted: for SAA: after 16 weeks of treatment. The source says:
(§1) Pouwer et al Supplementary material […]
(§2) The inflammatory markers SAA, E-selectin and MCP-
(§3) according to the manufacturer’s instruction. […]
Background: An ELISA detects its analyte on a solid surface through an enzyme-linked reagent.

For series [3], the system named is E-selectin. The experiment in a line: Plasma E-selectin ELISA. It is filed as in vivo, APOE*3Leiden.CETP mice. The note with it: after 16 weeks of treatment.
Description: as §1, §2, §3

In series [4] the test system is APOE*3Leiden.CETP mice. The experiment in a line: Plaque composition and lesion stability index in severe (type IV-V) lesions. To be noted: 16 weeks. It is filed as in vivo. As for the experimental part:
The macrophage and necrosis content were quantified as factors that decrease plaque stability, and smooth muscle cell area in the cap of the lesions and collagen as factors that improve plaque stability ([17, 35, 36]) (Figure 6A). […]
µm thick with intervals of 50 µm) were taken and mounted on AAS-coated slides. These sections were stained with hematoxylin-phloxine-saffron (HPS) for histological analysis. For each mouse, atherosclerosis was measured in 4 subsequent cross sections. Each section consisted of 3 segments. The average total lesion area per cross section was then calculated20
22. For determination of lesion severity the lesions were classified into five categories according to the American Heart Association classification 23: 0) no lesion I) early fatty streak, II) regular fatty streak, III) mild plaque, IV) moderate plaque, and V) severe plaque. The percentage of each lesion type was calculated, where type I-III lesions were classified as mild lesions and type IV-V lesions were classified as severe lesions 20 22. In the aortic root, lesion composition was determined for the severe lesions (type IV -V) as a percentage of lesion area after immunostaining with anti-human alpha-actin (1:400; PROGEN Biotechnik GmbH, Germany) for smooth muscle cells (SMC), and anti -mouse Mac-3 (1:50; BD Pharmingen, the Netherlands) for macrophages followed by Sirius Red staining. After Sirius Red staining for collagen, color intensity was determined in ImageJ and the used threshold was confirmed by evaluation of the sections under polarized light 24. Necrotic area and cholesterol clefts were measured after HPS staining13 20 22. Lesion stability index was calculated as described pre viously13 20. […]

The subject of series [5] is factor VIIa. The experiment in a line: Factor VIIa activity in plasma. The class given is in vivo, APOE*3Leiden.CETP mice. To be noted: 30 mg/kg QD, at 4 weeks, p < 0.001. From the text:
(§4) Pouwer et al Supplementary material
Dickinson, Franklin Lakes, New Jersey, USA). After 12 weeks of treatment, peripheral blood
CD11b+/Ly6Chigh monocytes. The following conjugated monoclonal antibodies, all from
(§5) Coagulation factor VII and VIIa
(Diagnostica Stago Inc. Parsippany, N J). For the determination of total clotting FVII an one
Histological assessment of lung morphology and atherosclerosis
The caudal lung was cross
(§6) direction of the aortic arch.

The conditions of series [6]: QD, cited from earlier work.
For series [7], the system named is APOE*3Leiden.CETP mice. The experiment in a line: Hepatic lipid content by HPTLC. It is filed as in vivo. To be noted: 16 weeks. As for the experimental part: as §4
(§7) HDL-C was measured after precipitation as described previously20. The distribution of […]
(§8) protein liquid chromatography (FPLC)9. The inflammatory markers SAA, E-selectin and MCP- […]
(§9) according to the manufacturer’s instruction. Plasma ALT and AST were determined using a […]
(§10) group at 2 and 15 weeks18.
(§11) Straubenhardt, Germany).21
(§12) BAL and urinary albumin:creatinin […]
(§13) catheter to collect broncho-alveolar lavage (BAL) fluid. Protein and albumin content in BAL […]
(§14) the mouse albumin ELISA kit (ALPCO, Salem, USA). Urinary albumin and creatinin levels […]
(§15) kit (Exocell, Philadelphia, USA) according to manufacturer’s instruction.

For series [8], the system named is APOE*3Leiden.CETP mice. The experiment in a line: Lung vascular integrity: histology, wet/dry weight ratio, protein in BAL fluid. The class given is in vivo. On the procedure: as §4, §7, §8, §9, §10, §11, §12, §13, §14, §15
Dickinson, Franklin Lakes, New Jersey, USA). After 12 weeks of treatment, peripheral blood […]
CD11b+/Ly6Chigh monocytes. The following conjugated monoclonal antibodies, all from […]
as §5
(Diagnostica Stago Inc. Parsippany, N J). For the determination of total clotting FVII an one […]
Histological assessment of lung morphology and atherosclerosis […]
The caudal lung was cross […]
as §6

The conditions of series [9]: for Body weight / Food intake: after 16 weeks; for Food intake: per cage. The source says: Female APOE*3Leiden.CETP transgenic mice (9 to 14 weeks of age) from the SPF breeding stock at TNO-Metabolic Health Research (TNO-Leiden) were used in this study. Females were used because they are more responsive to dietary cholesterol and fat than males. APOE*3Leiden females have a higher VLDL production ([20]) than males resulting in higher plasma total cholesterol (TC) and triglyceride (TG) levels and more pronounced development of atherosclerosis ([21, 22]). […] Body weight, food intake and clinical signs of behavior were monitored regularly during the study. Animal experiments were approved by the Institutional Animal Care and Use Committee of The Netherlands Organization for Applied Research under registration number 3557.

Setting [10] is: po, repeated dose, QD, 10 mg/kg, after 16 weeks.
Setting [11] is: po, repeated dose, QD, 30 mg/kg, after 16 weeks.
Where [12] appears, read: po, repeated dose, BID, 150 mg/kg, after 16 weeks.
Setting [13] is: po, repeated dose, QD, 3 mg/kg, after 16 weeks.

`Cc1cn(-c2cc(NC(=O)c3ccc(C)c(Nc4nccc(-c5cccnc5)n4)c3)cc(C(F)(F)F)c2)cn1` [Nilotinib, nilotinib]: the peak concentration (Cmax) came to 2300 ng/mL in [1] (setting [10]); 6890 ng/mL in series [1] (setting [11]); 11000 ng/mL in series [1] (single oral gavage, 50 mg/kg). Also, the Tmax in [1] (setting [10]) amounted to 3.17 h; in [1] (setting [11]) it was 3.17 h; in series [1] (single oral gavage, 50 mg/kg), 3.26 h. The AUC(0-t) turned out to be 24600 ng·h/mL in series [1] (setting [10]); 73800 ng·h/mL in [1] (setting [11]); 117000 ng·h/mL in series [1] (single oral gavage, 50 mg/kg). Moreover, the SAA in series [2] (10 mg/kg QD) is recorded as 10.6 ± 1.0 µg/mL; in series [2] (30 mg/kg QD) it was 10.6 ± 1.1 µg/mL. Also, the E-selectin in series [3] (10 mg/kg QD) was 79 ± 23 ng/mL; in series [3] (30 mg/kg QD), 99 ± 17 ng/mL. Also, the “change of collagen content vs control” value in series [4] (10 mg/kg, p = 0.003) is −32%. The “change of lesion stability index vs control” value in series [4] (10 mg/kg, p = 0.003) is listed as −43%. For the same compound, the “increase of the activity of FVIIa in plasma vs control” value in series [5] is on record as 82%. The “AUC0–24” value in series [6] (CML-patients, repeated dose, dose 400–1,200 (mg)) was 36000 ± 11800 ng·h/mL; in [6] (healthy subjects, single, dose 400 (mg)), 14700 ± 5000 ng·h/mL.

Take `Cc1ccc(NC(=O)c2ccc(CN3CCN(C)CC3)cc2)cc1Nc1nccc(-c2cccnc2)n1` [Imatinib, imatinib]: in series [1] (setting [12]), the Cmax came to 11100 ng/mL, the Tmax was 2.47 h and the AUC(0-t) is 78100 ng·h/mL. Also, in series [1] (single oral gavage, 100 mg/kg), the Cmax turned out to be 5290 ng/mL, the Tmax came to 2.28 h and the AUC(0-t) stood at 32800 ng·h/mL. The “change of hepatic cholesterol ester content vs control” value in series [7] (150 mg/kg BID, p = 0.001) was −30%. The “effect on plasma SAA” value in series [2] (150 mg/kg BID, 16 weeks) is recorded as “None of the inflammatory markers were significantly altered”. In addition, in [2] (150 mg/kg BID), the SAA is 9.6 ± 0.5 µg/mL. Besides, the “increase of collagen content of severe lesions vs control” value in [4] (150 mg/kg BID, p = 0.004) was found to be 47%. Besides, in series [4] (150 mg/kg BID, p = 0.050 (tended to increase)), the “change of αSMC content vs control” value is listed as “+38%”. The “collagen content (percentage of total plaque area)” value in series [4] (150 mg/kg BID, type IV-V lesions) is given as 62 ± 17%.

As to `Cc1ccc(C(=O)Nc2ccc(CN3CCN(C)CC3)c(C(F)(F)F)c2)cc1C#Cc1cnc2cccnn12` [Ponatinib, ponatinib], the Cmax worked out at 140 ng/mL in [1] (setting [13]); 460 ng/mL in series [1] (setting [10]); 190 ng/mL in [1] (single oral gavage, 5 mg/kg). Also, the Tmax in [1] (setting [13]) was 6.72 h; in series [1] (setting [10]), 6.73 h; in series [1] (single oral gavage, 5 mg/kg), 8 h. The AUC(0-t) in series [1] (setting [13]) is 2430 ng·h/mL; in [1] (setting [10]), 8110 ng·h/mL; in [1] (single oral gavage, 5 mg/kg), 3240 ng·h/mL. The “change of hepatic cholesterol ester content vs control” value is reported as −49% in series [7] (3 mg/kg QD (low dose), p < 0.001) and −61% in series [7] (10 mg/kg QD (high dose), p < 0.001). Also, the “change of hepatic triglyceride content vs control” value in series [7] (3 mg/kg QD (low dose), p = 0.048) is recorded as −32%; in [7] (10 mg/kg QD (high dose), p = 0.005) it was −43%. The “change of hepatic free cholesterol content vs control” value in [7] (10 mg/kg QD, p = 0.007) is recorded as −21%. The “decrease of the amount of protein in BAL fluid” value worked out at 51% in series [8] (3 mg/kg QD, week 16, p = 0.029) and 47% in [8] (10 mg/kg QD, week 16, p = 0.041). Moreover, the values for the SAA in series [2] (3 mg/kg QD) and in series [2] (10 mg/kg QD) were 10.4 ± 1.9 µg/mL and 15.2 ± 21.1 µg/mL, respectively. In [4] (3 mg/kg), the “effect on plaque stability” value is listed as “without affecting plaque stability”. For the same compound, the “change of necrotic core content vs control” value in series [4] (3 mg/kg, p = 0.001) is listed as −58%. Besides, the “mice that died during blood pressure measurements” value in series [9] (3 mg/kg QD, t = 15 weeks) is recorded as “Two”. The Body weight stood at 22.5 ± 2.3 gram in [9] (3 mg/kg) and 22.3 ± 2.8 gram in series [9] (10 mg/kg). Besides, the Food intake is given as 2.4 gram/mouse/day in series [9] (3 mg/kg) and 2.3 gram/mouse/day in series [9] (10 mg/kg). Also, the “AUC0–24” value in series [6] (CML-patients, repeated dose, dose 15–60 (mg)) was 1300 ng·h/mL; in series [6] (CML-patients, single, dose 60 (mg)), 700 ± 400 ng·h/mL.

Source of the values: publication PMC6005845 (Frontiers in Cardiovascular Medicine, 2018).
